Test results as given in patent US11015061B2, “Phthalocyanine-based compound and uses of same” (YAMAMOTO CHEMICALS, INC., priority 2017, dated 2021).

Tests used:
Assay type in all cases: physicochemical
[1] = Solubility in organic solvent (cyclopentanone); conditions: about 10 wt % dispersion, room temperature, 0.2 μm filter; no residue = 10 wt % or more
Method: The solubility of the phthalocyanine compound with respect to cyclopentanone was measured by the following method.
Cyclopentanone was added to about 1 g of the phthalocyanine compound such that the total weight thereof became about 10 g, and the obtained solution was irradiated with ultrasonic waves for about 30 minutes and then stirred for 2 hours at room temperature, thereby preparing a dispersion liquid of about 10 wt %.
The dispersion liquid was filtered through a membrane filter (0.2 μm), the substance obtained by filtration was dried for 1 hour in a drier at 60° C., and then the weight of the substance obtained by filtration was measured.
The solubility of the phthalocyanine compound in a solvent is expressed by the following equation. Solubility (wt %)=(W0−W1)/W0
W0 represents the correct weight of the phthalocyanine not yet being treated, and W1 represents the weight of the substance obtained by filtration (dissolved phthalocyanine compound residue) having been dried.

[2] = Visible light transmittance of chloroform solution; conditions: spectrum converted to transmittance 10% at near-infrared maximum absorption wavelength
Method: The visible light transmittance of the phthalocyanine-based compound of the present invention and the comparative example compounds was measured by the following measurement method.
Each of the phthalocyanine compounds ([…]) and approximately 90 mL of chloroform were put into a 100 mL volumetric flask, and the solution in the flask was irradiated with ultrasonic waves for 30 minutes and left to stand for 2 hours at room temperature. Then, chloroform was added thereto such that the meniscus of the solution matched up with the calibration mark on the volumetric flask, thereby preparing a 10 mg/L phthalocyanine solution. The prepared solution was put into a 1 cm×1 cm cell made of PYREX (registered trademark), and the absorption spectrum thereof was measured using a spectrophotometer (produced by Hitachi, Ltd.: Spectrophotometer U-3500).
The absorption spectrum measured as above was converted such that the absorbance became 1.0, that is, the transmittance became 10% at the maximum absorption wavelength in a near-infrared range, thereby obtaining a transmission spectrum. […] At 460 nm, the transmittance of the compound of the present invention was approximately the same as the transmittance of Comparative Examples 1 and 2.

[3] = Tts of laminated glass sample; conditions: 0.76 mm PVB interlayer with 0.013 g compound per 100 g resin, JIS R3106
Method: The phthalocyanine-based compound (Specific Example (1)-30) produced in Example 1 (0.013 g) was dissolved in 40 g of triethylene glycol-di-2-ethylhexanoate as an organic ester plasticizer. The obtained solution was added to 100 g of a polyvinyl butyral resin (trade name: BH-3, produced by SEKISUI CHEMICAL CO., LTD.), thoroughly melted and kneaded using a mixing roll, and extruded using an extruder, thereby obtaining an interlayer having a thickness of 0.76 mm.
The interlayer was cut in size of 100 mm×100 mm, interposed between heat ray absorbing glass plates (100 mm (length)×100 mm (width)×2.0 mm (thickness)) prepared based on JIS R3208, put into a rubber bag, and deaerated for 20 minutes at a degree of vacuum of 2.6 kPa. Then, the deaerated laminate was moved into an oven and further hold for 30 minutes at 90° C. to vacuum press. Thereafter, the laminate was compressed for 20 minutes in an autoclave under the condition of a temperature of 130° C. and a pressure of 1.3 MPa, thereby obtaining a laminated glass sample.
By using U-3500 type recording spectrophotometer produced by Hitachi, Ltd. as a measurement instrument, Tts of the laminated glass samples was measured based on JIS R3106 “Testing method for transmittance, reflectance, emissivity, and solar heat gain coefficient of flat glasses”.

Solubility to cyclopentanone (wt %) [1] [% wt %]	Transmittance (%) 460 nm [2] [%]	Transmittance (%) 610 nm [2] [%]	Tts [3] [%]	SMILES
≤1	97.9	86.6	53.6	COCc1ccc(COC)c2c1-c1nc-2nc2[n-]c(nc3nc(nc4[n-]c(n1)c1c(COC)ccc(COC)c41)-c1c(COC)ccc(COC)c1-3)c1c(COC)ccc(COC)c21.[O]=[V+2] [Comparative Example Compound (a), reference compound]
≥10	98.1	88.4	53.2	COCCCCc1ccc(CCCCOC)c2c1-c1nc-2nc2[n-]c(nc3nc(nc4[n-]c(n1)c1c(CCCCOC)ccc(CCCCOC)c41)-c1c(CCCCOC)ccc(CCCCOC)c1-3)c1c(CCCCOC)ccc(CCCCOC)c21.[O]=[V+2] [Specific Example (1)-30]
≥10	99.2	88.3	51.5	COCCCCc1ccc(CCCCOC)c2c1-c1nc-2nc2[n-]c(nc3nc(nc4[n-]c(n1)c1c(CCCCOC)ccc(CCCCOC)c41)-c1c(CCCCOC)ccc(CCCCOC)c1-3)c1c(CCCCOC)ccc(CCCCOC)c21.[Cu+2] [Specific Example (1)-31]
≥10	98.1	88.3	51.5	CCOCCCCc1ccc(CCCCOCC)c2c1-c1nc-2nc2[n-]c(nc3nc(nc4[n-]c(n1)c1c(CCCCOCC)ccc(CCCCOCC)c41)-c1c(CCCCOCC)ccc(CCCCOCC)c1-3)c1c(CCCCOCC)ccc(CCCCOCC)c21.[O]=[V+2] [Specific Example (1)-33]
≥10	98.0	88.1	52.6	[O]=[V+2].c1ccc(OCCCCc2ccc(CCCCOc3ccccc3)c3c2-c2nc-3nc3[n-]c(nc4nc(nc5[n-]c(n2)c2c(CCCCOc6ccccc6)ccc(CCCCOc6ccccc6)c52)-c2c(CCCCOc5ccccc5)ccc(CCCCOc5ccccc5)c2-4)c2c(CCCCOc4ccccc4)ccc(CCCCOc4ccccc4)c32)cc1 [Specific Example (1)-37]
≥10	98.3	88.6	51.7	[O]=[V+2].c1ccc(OCCOCCCCc2ccc(CCCCOCCOc3ccccc3)c3c2-c2nc-3nc3[n-]c(nc4nc(nc5[n-]c(n2)c2c(CCCCOCCOc6ccccc6)ccc(CCCCOCCOc6ccccc6)c52)-c2c(CCCCOCCOc5ccccc5)ccc(CCCCOCCOc5ccccc5)c2-4)c2c(CCCCOCCOc4ccccc4)ccc(CCCCOCCOc4ccccc4)c32)cc1 [Specific Example (1)-38]
≥10	97.7	88.1	52.7	COc1cccc(OCCCCc2ccc(CCCCOc3cccc(OC)c3)c3c2-c2nc-3nc3[n-]c(nc4nc(nc5[n-]c(n2)c2c(CCCCOc6cccc(OC)c6)ccc(CCCCOc6cccc(OC)c6)c52)-c2c(CCCCOc5cccc(OC)c5)ccc(CCCCOc5cccc(OC)c5)c2-4)c2c(CCCCOc4cccc(OC)c4)ccc(CCCCOc4cccc(OC)c4)c32)c1.[O]=[V+2] [Specific Example (1)-39]
≥10	99.4	88.0	52	COc1cccc(OCCCCc2ccc(CCCCOc3cccc(OC)c3)c3c2-c2nc-3nc3[n-]c(nc4nc(nc5[n-]c(n2)c2c(CCCCOc6cccc(OC)c6)ccc(CCCCOc6cccc(OC)c6)c52)-c2c(CCCCOc5cccc(OC)c5)ccc(CCCCOc5cccc(OC)c5)c2-4)c2c(CCCCOc4cccc(OC)c4)ccc(CCCCOc4cccc(OC)c4)c32)c1.[Cu+2] [Specific Example (1)-40]
≥10	97.9	88.5	52.3	CC(C)(C)c1ccc(OCCCCc2ccc(CCCCOc3ccc(C(C)(C)C)cc3)c3c2-c2nc-3nc3[n-]c(nc4nc(nc5[n-]c(n2)c2c(CCCCOc6ccc(C(C)(C)C)cc6)ccc(CCCCOc6ccc(C(C)(C)C)cc6)c52)-c2c(CCCCOc5ccc(C(C)(C)C)cc5)ccc(CCCCOc5ccc(C(C)(C)C)cc5)c2-4)c2c(CCCCOc4ccc(C(C)(C)C)cc4)ccc(CCCCOc4ccc(C(C)(C)C)cc4)c32)cc1.[O]=[V+2] [Specific Example (1)-42]
≥10	97.6	88.0	52	Fc1ccccc1OCCCCc1ccc(CCCCOc2ccccc2F)c2c1-c1nc-2nc2[n-]c(nc3nc(nc4[n-]c(n1)c1c(CCCCOc5ccccc5F)ccc(CCCCOc5ccccc5F)c41)-c1c(CCCCOc4ccccc4F)ccc(CCCCOc4ccccc4F)c1-3)c1c(CCCCOc3ccccc3F)ccc(CCCCOc3ccccc3F)c21.[O]=[V+2] [Specific Example (1)-43]
≥10	98.3	89.0	52.9	COc1cccc(OC)c1OCCCCc1ccc(CCCCOc2c(OC)cccc2OC)c2c1-c1nc-2nc2[n-]c(nc3nc(nc4[n-]c(n1)c1c(CCCCOc5c(OC)cccc5OC)ccc(CCCCOc5c(OC)cccc5OC)c41)-c1c(CCCCOc4c(OC)cccc4OC)ccc(CCCCOc4c(OC)cccc4OC)c1-3)c1c(CCCCOc3c(OC)cccc3OC)ccc(CCCCOc3c(OC)cccc3OC)c21.[O]=[V+2] [Specific Example (1)-44]
≥10	99.9	89.5	52.5	COc1cccc(OC)c1OCCCCc1ccc(CCCCOc2c(OC)cccc2OC)c2c1-c1nc-2nc2[n-]c(nc3nc(nc4[n-]c(n1)c1c(CCCCOc5c(OC)cccc5OC)ccc(CCCCOc5c(OC)cccc5OC)c41)-c1c(CCCCOc4c(OC)cccc4OC)ccc(CCCCOc4c(OC)cccc4OC)c1-3)c1c(CCCCOc3c(OC)cccc3OC)ccc(CCCCOc3c(OC)cccc3OC)c21.[Cu+2] [Specific Example (1)-45]
